Test results published in ChEMBL document CHEMBL1128944, “Potent cyclic urea HIV protease inhibitors with benzofused heterocycles as P2/P2 groups” (Bioorg Med Chem Lett, 1996).

Columns and labels:
[1] = Half life period was evaluated in rats; type: ADME, organism-based; conditions: rat, in vivo
[2] = target: Human immunodeficiency virus type 1 protease (Human immunodeficiency virus 1, UniProt Q72874); test: Inhibitory activity was evaluated against HIV protease
[3] = Half life period was evaluated in dog; type: ADME, organism-based, Canis lupus familiaris; conditions: in vivo
[4] = target: Human immunodeficiency virus type 1 protease (Human immunodeficiency virus 1) (UniProt Q72874); test: Inhibitory activity against HIV-1 RF infected MT-2 cells; type: functional, cell-based; conditions: MT2
[5] = Bioavailability was evaluated in dog; type: ADME, organism-based, Canis lupus familiaris; conditions: in vivo
[6] = Maximum concentration was evaluated in dog plasma; type: ADME, organism-based, Canis lupus familiaris
[7] = Clearance value was evaluated in dog plasma; type: ADME, organism-based, Canis lupus familiaris
[8] = Plasma Clearance was evaluated in rats, iv; type: ADME, organism-based; conditions: rat

Compound	Ki [2] [nM]	IC90 [4] [nM]	other results
O=C1N(Cc2ccc3[nH]ncc3c2)[C@H](Cc2ccccc2)[C@H](O)[C@@H](O)[C@@H](Cc2ccccc2)N1Cc1ccc2[nH]ncc2c1	0.018	8	half-life [1]: 2.7 h; half-life [3]: 2 h; bioavailability [5]: 13%; Cmax [6]: 600 ng/mL; clearance [7]: 18.3 mL/min/kg; clearance [8]: 3.33 mL/min/kg
Nc1nc2cc(CN3C(=O)N(Cc4ccc5[nH]c(N)nc5c4)[C@H](Cc4ccccc4)[C@H](O)[C@@H](O)[C@H]3Cc3ccccc3)ccc2[nH]1	5.8	8100	–
O=C1N(Cc2ccc3ncoc3c2)[C@H](Cc2ccccc2)[C@H](O)[C@@H](O)[C@@H](Cc2ccccc2)N1Cc1ccc2ncoc2c1	3.4	440	–
O=C1Nc2ccc(CN3C(=O)N(Cc4ccc5c(c4)C(=O)C(=O)N5)[C@H](Cc4ccccc4)[C@H](O)[C@@H](O)[C@H]3Cc3ccccc3)cc2C1=O	0.81	8500	–
O=C1N(Cc2ccc3nc(O)cnc3c2)[C@H](Cc2ccccc2)[C@H](O)[C@@H](O)[C@@H](Cc2ccccc2)N1Cc1ccc2nc(O)cnc2c1	490	7800	–
O=C1N(Cc2ccc3c[nH]nc3c2)[C@H](Cc2ccccc2)[C@H](O)[C@@H](O)[C@@H](Cc2ccccc2)N1Cc1ccc2c[nH]nc2c1	0.018	49	–
Nc1nc2ccc(CN3C(=O)N(Cc4ccc5nc(N)sc5c4)[C@H](Cc4ccccc4)[C@H](O)[C@@H](O)[C@H]3Cc3ccccc3)cc2s1	5.7	270	–
O=C1N(Cc2ccc3c(c2)NS(=O)(=O)N3)[C@H](Cc2ccccc2)[C@H](O)[C@@H](O)[C@@H](Cc2ccccc2)N1Cc1ccc2c(c1)NS(=O)(=O)N2	0.19	32000	–
O=C1N(Cc2ccc(CO)cc2)[C@H](Cc2ccccc2)[C@H](O)[C@@H](O)[C@@H](Cc2ccccc2)N1Cc1ccc(CO)cc1 [DMP-323]	–	100	clearance [8]: 118 mL/min/kg
O=C1N(Cc2ccc3[nH]nnc3c2)[C@H](Cc2ccccc2)[C@H](O)[C@@H](O)[C@@H](Cc2ccccc2)N1Cc1ccc2[nH]nnc2c1	–	530	–
O=C1N(Cc2ccc3nc(S)oc3c2)[C@H](Cc2ccccc2)[C@H](O)[C@@H](O)[C@@H](Cc2ccccc2)N1Cc1ccc2nc(S)oc2c1	4.8	5100	–
O=C1CNc2cc(CN3C(=O)N(Cc4ccc5c(c4)NCC(=O)N5)[C@H](Cc4ccccc4)[C@H](O)[C@@H](O)[C@H]3Cc3ccccc3)ccc2N1	6.1	7700	–
Nc1nc2ccc(CN3C(=O)N(Cc4ccc5nc(N)oc5c4)[C@H](Cc4ccccc4)[C@H](O)[C@@H](O)[C@H]3Cc3ccccc3)cc2o1	0.2	84	–
O=C1N(Cc2ccc3[nH]c(O)nc3c2)[C@H](Cc2ccccc2)[C@H](O)[C@@H](O)[C@@H](Cc2ccccc2)N1Cc1ccc2[nH]c(O)nc2c1	< 0.01	> 65000	–
O=C1N(Cc2ccc3[nH]cnc3c2)[C@H](Cc2ccccc2)[C@H](O)[C@@H](O)[C@@H](Cc2ccccc2)N1Cc1ccc2[nH]cnc2c1	11	19000	–
O=C1N(Cc2ccc3nc(O)sc3c2)[C@H](Cc2ccccc2)[C@H](O)[C@@H](O)[C@@H](Cc2ccccc2)N1Cc1ccc2nc(O)sc2c1	0.91	109	–
O=C1N(Cc2ccc3[nH]ccc3c2)[C@H](Cc2ccccc2)[C@H](O)[C@@H](O)[C@@H](Cc2ccccc2)N1Cc1ccc2[nH]ccc2c1	1.3	190	–
O=C1N(Cc2ccc3oc(O)nc3c2)[C@H](Cc2ccccc2)[C@H](O)[C@@H](O)[C@@H](Cc2ccccc2)N1Cc1ccc2oc(O)nc2c1	3.9	579	–
O=C1N(Cc2ccc3sc(O)nc3c2)[C@H](Cc2ccccc2)[C@H](O)[C@@H](O)[C@@H](Cc2ccccc2)N1Cc1ccc2sc(O)nc2c1	130	–	–
O=C1N(Cc2ccc3nn[nH]c3c2)[C@H](Cc2ccccc2)[C@H](O)[C@@H](O)[C@@H](Cc2ccccc2)N1Cc1ccc2nn[nH]c2c1	0.09	–	–
O=C1N(Cc2ccc3scnc3c2)[C@H](Cc2ccccc2)[C@H](O)[C@@H](O)[C@@H](Cc2ccccc2)N1Cc1ccc2scnc2c1	28	3200	–
Nc1nc2cc(CN3C(=O)N(Cc4ccc5sc(N)nc5c4)[C@H](Cc4ccccc4)[C@H](O)[C@@H](O)[C@H]3Cc3ccccc3)ccc2s1	190	950	–
O=C1N(Cc2ccc3nc(O)oc3c2)[C@H](Cc2ccccc2)[C@H](O)[C@@H](O)[C@@H](Cc2ccccc2)N1Cc1ccc2nc(O)oc2c1	0.18	40	–
O=C1Cc2cc(CN3C(=O)N(Cc4ccc5c(c4)CC(=O)N5)[C@H](Cc4ccccc4)[C@H](O)[C@@H](O)[C@H]3Cc3ccccc3)ccc2N1	0.14	370	–
